What was measured:
[1] = biological target: human recombinant full-length Btk enzyme (Homo sapiens, UniProt Q06187); experiment: Omnia Continuous Read Kinase Assay, Btk inhibition; assay type: biochemical; design: human recombinant full-length Btk enzyme; conditions: 30 minutes pre-incubation at 27° C.; 0.5 nM to 10 μM
Description: The following Example describes testing certain compounds according to the invention for inhibition of BTK activity. The Omnia® Continuous Read Kinase Assay uses an unnatural amino acid chelation enhanced fluorophore (Sox; 8-hydroxy-5-(N,N-dimethylsulfonamido)-2 methylquinoline) incorporated into a kinase-specific peptide substrate to characterize Btk enzyme kinetics and inhibition. Following Btk-mediated phosphorylation, a sensitive, highly quantifiable increase in real-time fluorescence is noted based upon the ability of chelated Mg2+ to form a bridge between Sox and the phosphate group on a tyrosine residue of the peptide substrate. The Omnia® continuous read assay was performed essentially as described by the vendor (Invitrogen; Carlsbad, Calif.). First, a 10× stock of human recombinant full-length Btk enzyme was prepared in Kinase Reaction Buffer. 5 μL of the 10× enzyme was pre-incubated with 0.5 μL of serially diluted compound prepared in 50% DMSO, in a 384-well microtiter plate for 30 minutes at 27° C. 1.13×ATP and the Tyr5-Sox conjugated peptide substrate were prepared in 1× Kinase Reaction Buffer. Kinase reactions were initiated by the addition of 45 μL of the 1.13×ATP-Sox peptide substrate master mix and monitored every 30 to 90 seconds for 60 minutes at λex360/λem485 in a Synergy plate reader. The IC50 values for each compound assayed were determined from test concentrations of 0.5 nM to 10 μM in half-log intervals performed in duplicate.
At the conclusion of each assay, progress curves from each well were examined for linear reaction kinetics and fit statistics (R2, 95% confidence interval, absolute sum of squares) using GraphPad software (GraphPad Prism version 5.01; San Diego, Calif.). Initial velocity (0 minutes to ˜30+ minutes) from each reaction was determined from the slope of a plot of relative fluorescence units versus time (minutes). Using control normalized % inhibition data, plots were constructed against inhibitor concentration to estimate IC50 from log [inhibitor] versus response using a variable slope model in GraphPad. The compound numbers correspond to the compound numbers in Table 1.

[2] = biological target: T1, BTK autophosphorylation (Phospho Y223 Btk) in Ramos cells (Homo sapiens, UniProt Q06187); experiment: Btk Ramos cell signaling immunoblot analysis, phospho-Btk; assay type: cell-based; conditions: 1 hour compound incubation, anti-human IgM stimulation, phospho-Btk normalized to total Btk, read-out: pBtk EC50
T1 construct: endogenous in cells; host or cells: Ramos cells
Procedure: The following example describes testing certain compounds according to the invention for inhibition of BTK activity. Ramos cells were incubated in serum-free RPMI medium for 1-1.5 hours. Cells were then centrifuged for 5 minutes at 1100 RPM and resuspended in serum-free RPMI in 15 mL roundbottom Corning tubes (˜2×10^6 cells/mL in 4 mL/tube). The compound was diluted in DMSO and was added to the cells to achieve a final concentration of 0.0003, 0.001, 0.003, 0.01, 0.03, 0.1, 0.3, and 1.0 μM. Cells were then incubated for 1 hour at 37° C. Following incubation, cells were spun at 1100 RPM for 5 minutes and then resuspended in 100 μL of serum-free RPMI. […] Supernatant was transferred to a fresh tube and analyzed for protein content. […]
10 μg of protein was denatured by adding 1:10 (v:v) of NuPage Reducing Agent plus 1:4 (v:v) of LDS Loading Buffer. […] The membrane was then scanned on a LiCor Odyssey Scanner using infrared fluorescence detection.
Data analysis was accomplished using the analysis package found in Odyssey Infrared Imaging System software in which intensities of total Btk and phospho-Btk were measured. Phospho-Btk was normalized to total Btk protein in each lane as a loading control and results are expressed as % activity compared to the DMSO control (100%) Inhibition of phospho-PLCγ2 was quantitated in a similar manner. […]

Chain of human recombinant full-length Btk enzyme (Q06187 whole entry): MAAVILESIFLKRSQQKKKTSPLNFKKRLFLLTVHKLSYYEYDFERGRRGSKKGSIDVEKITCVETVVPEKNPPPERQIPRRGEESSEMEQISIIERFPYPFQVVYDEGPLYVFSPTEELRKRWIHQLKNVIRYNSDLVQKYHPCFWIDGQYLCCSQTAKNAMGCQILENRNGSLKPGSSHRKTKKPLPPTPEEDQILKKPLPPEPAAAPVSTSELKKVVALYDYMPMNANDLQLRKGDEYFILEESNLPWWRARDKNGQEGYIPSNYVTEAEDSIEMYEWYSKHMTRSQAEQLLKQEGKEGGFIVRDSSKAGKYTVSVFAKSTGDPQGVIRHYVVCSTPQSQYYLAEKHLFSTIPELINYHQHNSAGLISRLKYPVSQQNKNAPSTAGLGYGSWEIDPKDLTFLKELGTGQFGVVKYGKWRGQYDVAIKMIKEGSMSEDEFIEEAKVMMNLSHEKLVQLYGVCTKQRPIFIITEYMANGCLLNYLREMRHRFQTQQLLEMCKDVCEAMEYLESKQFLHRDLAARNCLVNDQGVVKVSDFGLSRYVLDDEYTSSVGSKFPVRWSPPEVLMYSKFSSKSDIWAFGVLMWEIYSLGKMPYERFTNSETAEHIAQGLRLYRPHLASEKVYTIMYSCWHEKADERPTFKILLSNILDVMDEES
T1 sequence (Q06187 whole entry): as above

SMILES | IC50 [1] [nM] | EC50 [2] [µM]
C=CC(=O)Nc1cccc(Nc2nc(Nc3ccc(O)cc3)ncc2F)c1 [Compound I-3, N-(3-((5-fluoro-2-((4-hydroxyphenyl)amino)pyrimidin-4-yl)amino)phenyl)acrylamide] | ≤ 10 | 0.01 to 0.05
C=CC(=O)Nc1cccc(Nc2nc(Nc3ccc(OCCO)cc3)ncc2F)c1 [Compound I-1, N-(3-((5-fluoro-2-((4-(2-hydroxyethoxy)phenyl)amino)pyrimidin-4-yl)amino)phenyl)acrylamide] | ≤ 10 | < 0.01

— patent publication US9415049B2, “Heteroaryl compounds and uses thereof” (Celgene Avilomics Research, Inc., priority 2013, dated 2016)
